Read-outs that look alike come from different tables or passages of the source.
Test: Phase 1 pharmacokinetics (liquid chromatography/tandem mass spectrometry)
Format: in vivo, human
Conditions: for AUC(0-t) / Cmax / Tmax: human, in vivo, oral; for Tmax: read-out: Tmax, Median
Procedure: In phase 1, full PK sampling was performed on days 1 and 15 of cycle 1 and day 1 of cycle 2. Trough PK samples were drawn prior to dosing on days 8 and 22 of cycle 1 and at 24, 48, and 72 h after dosing on day 25 of cycle 1. A sample was collected before dosing on day 1 of cycles 4, 7, and 10. Pacritinib concentrations were determined using a validated liquid chromatography/tandem mass spectrometry method. An analysis of clinical exposures from the HCl and citrate salts of pacritinib was performed comparing Day 1 PK data from 12 patients who received the HCl salt formulation in the 200 mg cohorts of this study and two other pacritinib studies [NCT00741871 and NCT00745550]) with six patients in the 200 mg cohort of this study who received the citrate salt formulation.

C1=C/COCc2cc(ccc2OCCN2CCCC2)Nc2nccc(n2)-c2cccc(c2)COC/1 [pacritinib, 11-(2-pyrrolidin-1-yl-ethoxy)-14,19-dioxa-5,7,26-triaza-tetracyclo[19.3.1.1(2,6). 1(8,12)]heptacosa-1(25),2(26),3,5,8,10,12(27),16,21,23-decaene]
Mean PK profiles, citrate vs HCl salts (200 mg, day 1, 6 patients citrate vs 12 patients HCl): similar | AUC(0-t) (100 mg, phase 1, Day 1, 100 mg, read-out: AUC0-24h, Mean): 65.9 µg·h/mL | AUC(0-t) (100 mg, phase 1, Day 1, 100 mg, read-out: AUC0-24h, Median): 56 µg·h/mL | Cmax (100 mg, phase 1, Day 1, 100 mg, read-out: Cmax, Mean): 3700 ng/mL | Cmax (100 mg, phase 1, Day 1, 100 mg, read-out: Cmax, Median): 2910 ng/mL | Tmax (100 mg, phase 1, Day 1, 100 mg): 5 h | AUC(0-t) (100 mg, phase 1, Day 15, 100 mg, read-out: AUC0-24h, Mean): 120 µg·h/mL | AUC(0-t) (100 mg, phase 1, Day 15, 100 mg, read-out: AUC0-24h, Median): 121 µg·h/mL | Cmax (100 mg, phase 1, Day 15, 100 mg, read-out: Cmax, Mean): 6360 ng/mL | Cmax (100 mg, phase 1, Day 15, 100 mg, read-out: Cmax, Median): 6180 ng/mL | Tmax (100 mg, phase 1, Day 15, 100 mg): 3 h | AUC(0-t) (150 mg, phase 1, Day 1, 150 mg, read-out: AUC0-24h, Mean): 64.7 µg·h/mL | AUC(0-t) (150 mg, phase 1, Day 1, 150 mg, read-out: AUC0-24h, Median): 69.2 µg·h/mL | Cmax (150 mg, phase 1, Day 1, 150 mg, read-out: Cmax, Mean): 3720 ng/mL | Cmax (150 mg, phase 1, Day 1, 150 mg, read-out: Cmax, Median): 3790 ng/mL | AUC(0-t) (150 mg, phase 1, Day 15, 150 mg, read-out: AUC0-24h, Mean): 140 µg·h/mL | AUC(0-t) (150 mg, phase 1, Day 15, 150 mg, read-out: AUC0-24h, Median): 114 µg·h/mL | Cmax (150 mg, phase 1, Day 15, 150 mg, read-out: Cmax, Mean): 6700 ng/mL | Cmax (150 mg, phase 1, Day 15, 150 mg, read-out: Cmax, Median): 5410 ng/mL | Tmax (150 mg, phase 1, Day 15, 150 mg): 2.5 h | AUC(0-t) (300 mg, phase 1, Day 1, 300 mg, read-out: AUC0-24h, Mean): 87.1 µg·h/mL | AUC(0-t) (300 mg, phase 1, Day 1, 300 mg, read-out: AUC0-24h, Median): 98.2 µg·h/mL | Cmax (300 mg, phase 1, Day 1, 300 mg, read-out: Cmax, Mean): 5240 ng/mL | Cmax (300 mg, phase 1, Day 1, 300 mg, read-out: Cmax, Median): 5830 ng/mL | AUC(0-t) (300 mg, phase 1, Day 15, 300 mg, read-out: AUC0-24h, Mean): 133 µg·h/mL | AUC(0-t) (300 mg, phase 1, Day 15, 300 mg, read-out: AUC0-24h, Median): 134 µg·h/mL | Cmax (300 mg, phase 1, Day 15, 300 mg, read-out: Cmax, Mean): 6410 ng/mL | Cmax (300 mg, phase 1, Day 15, 300 mg, read-out: Cmax, Median): 6860 ng/mL | AUC(0-t) (400 mg, phase 1, Day 1, 400 mg, read-out: AUC0-24h, Mean): 127 µg·h/mL | AUC(0-t) (400 mg, phase 1, Day 1, 400 mg, read-out: AUC0-24h, Median): 118 µg·h/mL | Cmax (400 mg, phase 1, Day 1, 400 mg, read-out: Cmax, Mean): 6280 ng/mL | Cmax (400 mg, phase 1, Day 1, 400 mg, read-out: Cmax, Median): 5640 ng/mL | Tmax (400 mg, phase 1, Day 1, 400 mg): 8 h | AUC(0-t) (400 mg, phase 1, Day 15, 400 mg, read-out: AUC0-24h, Mean): 203 µg·h/mL | AUC(0-t) (400 mg, phase 1, Day 15, 400 mg, read-out: AUC0-24h, Median): 240 µg·h/mL | Cmax (400 mg, phase 1, Day 15, 400 mg, read-out: Cmax, Mean): 9770 ng/mL | Cmax (400 mg, phase 1, Day 15, 400 mg, read-out: Cmax, Median): 11700 ng/mL | AUC(0-t) (500 mg, phase 1, Day 1, 500 mg, read-out: AUC0-24h, Mean): 141 µg·h/mL | AUC(0-t) (500 mg, phase 1, Day 1, 500 mg, read-out: AUC0-24h, Median): 118 µg·h/mL | Cmax (500 mg, phase 1, Day 1, 500 mg, read-out: Cmax, Mean): 7050 ng/mL | Cmax (500 mg, phase 1, Day 1, 500 mg, read-out: Cmax, Median): 6310 ng/mL | AUC(0-t) (500 mg, phase 1, Day 15, 500 mg, read-out: AUC0-24h, Mean): 178 µg·h/mL | AUC(0-t) (500 mg, phase 1, Day 15, 500 mg, read-out: AUC0-24h, Median): 161 µg·h/mL | Cmax (500 mg, phase 1, Day 15, 500 mg, read-out: Cmax, Mean): 8730 ng/mL | Cmax (500 mg, phase 1, Day 15, 500 mg, read-out: Cmax, Median): 7990 ng/mL | AUC(0-t) (600 mg, phase 1, Day 1, 600 mg, read-out: AUC0-24h, Mean): 136 µg·h/mL | AUC(0-t) (600 mg, phase 1, Day 1, 600 mg, read-out: AUC0-24h, Median): 129 µg·h/mL | Cmax (600 mg, phase 1, Day 1, 600 mg, read-out: Cmax, Mean): 8330 ng/mL | Cmax (600 mg, phase 1, Day 1, 600 mg, read-out: Cmax, Median): 7880 ng/mL | Tmax (600 mg, phase 1, Day 1, 600 mg): 4.5 h | AUC(0-t) (600 mg, phase 1, Day 15, 600 mg, read-out: AUC0-24h, Mean): 161 µg·h/mL | AUC(0-t) (600 mg, phase 1, Day 15, 600 mg, read-out: AUC0-24h, Median): 161 µg·h/mL | Cmax (600 mg, phase 1, Day 15, 600 mg, read-out: Cmax, Mean): 9220 ng/mL | Cmax (600 mg, phase 1, Day 15, 600 mg, read-out: Cmax, Median): 8560 ng/mL
